Measurements taken from the supplement of paper PMC10307832.

Compound: C1CSC2=C(C(=O)N1)SC3=C2C=C(C=C3)O [kb NB 142-70] + NC(=O)Nc1cc(-c2cccc(F)c2)sc1C(=O)N[C@H]1CCCNC1 [AZD7762] (partner 0.2 µM)
Assay: relative viability (nuclei count vs DMSO), 5 days (fraction); higher = more cells survive
Outline: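 One day after seeding in 1536-well plates, lung cancer cell lines were dosed by pin tool. Dosing was either single-drug or a fixed anchor-drug dose plus five library-drug doses (not always all listed) in √10 steps. After 5 days, nuclei were stained in one fix-and-stain step and counted on 4× images, and relative viability is the nuclei count of treated wells over that of vehicle wells, given as the median of duplicate plates.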

201T
relative viability (first compound 0.1 µM): 0.603 | relative viability (first compound 1 µM): 0.723 | relative viability (first compound 3.162 µM): 0.676

A-427
relative viability (first compound 0.1 µM): 0.783 | relative viability (first compound 1 µM): 0.93 | relative viability (first compound 3.162 µM): 1.08

ABC-1
relative viability (first compound 0.1 µM): 0.936 | relative viability (first compound 1 µM): 0.927 | relative viability (first compound 3.162 µM): 0.758

BEN
relative viability (first compound 0.1 µM): 0.727 | relative viability (first compound 1 µM): 0.623 | relative viability (first compound 3.162 µM): 0.531

CAL-12T
relative viability (first compound 0.1 µM): 0.548 | relative viability (first compound 1 µM): 0.718 | relative viability (first compound 3.162 µM): 0.704

ChaGo-K-1
relative viability (first compound 0.1 µM): 0.896 | relative viability (first compound 1 µM): 0.873 | relative viability (first compound 3.162 µM): 0.888

EKVX
relative viability (first compound 0.1 µM): 0.739 | relative viability (first compound 1 µM): 0.704 | relative viability (first compound 3.162 µM): 0.684

EMC-BAC-2
relative viability (first compound 0.1 µM): 1.13 | relative viability (first compound 1 µM): 1.15 | relative viability (first compound 3.162 µM): 0.731

EPLC-272H
relative viability (first compound 0.1 µM): 0.265 | relative viability (first compound 1 µM): 0.34 | relative viability (first compound 3.162 µM): 0.284

H3255
relative viability (first compound 0.1 µM): 0.86 | relative viability (first compound 1 µM): 0.925 | relative viability (first compound 3.162 µM): 0.999

HARA
relative viability (first compound 0.1 µM): 0.292 | relative viability (first compound 1 µM): 0.393 | relative viability (first compound 3.162 µM): 1.07

HCC-15
relative viability (first compound 0.1 µM): 1.2 | relative viability (first compound 1 µM): 1.29 | relative viability (first compound 3.162 µM): 1.28

HCC-44
relative viability (first compound 0.1 µM): 0.99 | relative viability (first compound 1 µM): 1.06 | relative viability (first compound 3.162 µM): 1.06

HCC-78
relative viability (first compound 0.1 µM): 0.616 | relative viability (first compound 1 µM): 0.629 | relative viability (first compound 3.162 µM): 0.684

HCC-366
relative viability (first compound 0.1 µM): 0.277 | relative viability (first compound 1 µM): 0.572 | relative viability (first compound 3.162 µM): 0.734

HCC-827
relative viability (first compound 0.1 µM): 0.233 | relative viability (first compound 1 µM): 0.195 | relative viability (first compound 3.162 µM): 0.255

HOP-62
relative viability (first compound 0.1 µM): 0.691 | relative viability (first compound 1 µM): 1.1 | relative viability (first compound 3.162 µM): 0.764

LC-2-ad
relative viability (first compound 0.1 µM): 0.826 | relative viability (first compound 1 µM): 0.825 | relative viability (first compound 3.162 µM): 0.888

LCLC-97TM1
relative viability (first compound 0.1 µM): 0.346 | relative viability (first compound 1 µM): 0.231 | relative viability (first compound 3.162 µM): 0.563

LCLC-103H
relative viability (first compound 0.1 µM): 0.766 | relative viability (first compound 1 µM): 0.782 | relative viability (first compound 3.162 µM): 0.894

LK-2
relative viability (first compound 0.1 µM): 0.308 | relative viability (first compound 1 µM): 0.319 | relative viability (first compound 3.162 µM): 0.329

LOU-NH91
relative viability (first compound 0.1 µM): 0.767 | relative viability (first compound 1 µM): 0.762 | relative viability (first compound 3.162 µM): 0.637

LU99A
relative viability (first compound 0.1 µM): 0.386 | relative viability (first compound 1 µM): 0.493 | relative viability (first compound 3.162 µM): 0.462

LXF-289
relative viability (first compound 0.1 µM): 1.11 | relative viability (first compound 1 µM): 1.1 | relative viability (first compound 3.162 µM): 1.27

NCI-H23
relative viability (first compound 0.1 µM): 0.376 | relative viability (first compound 1 µM): 0.291 | relative viability (first compound 3.162 µM): 0.275

NCI-H322M
relative viability (first compound 0.1 µM): 0.634 | relative viability (first compound 1 µM): 0.707 | relative viability (first compound 3.162 µM): 0.846

NCI-H358
relative viability (first compound 0.1 µM): 0.437 | relative viability (first compound 1 µM): 0.44 | relative viability (first compound 3.162 µM): 0.295

NCI-H441
relative viability (first compound 0.1 µM): 1.06 | relative viability (first compound 1 µM): 1.23 | relative viability (first compound 3.162 µM): 0.863

NCI-H460
relative viability (first compound 0.1 µM): 0.618 | relative viability (first compound 1 µM): 0.904 | relative viability (first compound 3.162 µM): 0.953

NCI-H522
relative viability (first compound 0.1 µM): 0.959 | relative viability (first compound 1 µM): 0.753 | relative viability (first compound 3.162 µM): 0.746

NCI-H596
relative viability (first compound 0.1 µM): 1.13 | relative viability (first compound 1 µM): 1.09 | relative viability (first compound 3.162 µM): 1.09

NCI-H647
relative viability (first compound 0.1 µM): 0.412 | relative viability (first compound 1 µM): 0.516 | relative viability (first compound 3.162 µM): 0.537

NCI-H650
relative viability (first compound 0.1 µM): 0.999 | relative viability (first compound 1 µM): 1.09 | relative viability (first compound 3.162 µM): 0.774

NCI-H727
relative viability (first compound 0.1 µM): 0.531 | relative viability (first compound 1 µM): 0.688 | relative viability (first compound 3.162 µM): 0.769

NCI-H838
relative viability (first compound 0.1 µM): 0.938 | relative viability (first compound 1 µM): 0.925 | relative viability (first compound 3.162 µM): 1

NCI-H1355
relative viability (first compound 0.1 µM): 0.776 | relative viability (first compound 1 µM): 0.81 | relative viability (first compound 3.162 µM): 1

NCI-H1395
relative viability (first compound 0.1 µM): 0.4 | relative viability (first compound 1 µM): 0.428 | relative viability (first compound 3.162 µM): 0.501

NCI-H1437
relative viability (first compound 0.1 µM): 1.14 | relative viability (first compound 1 µM): 1.12 | relative viability (first compound 3.162 µM): 1

NCI-H1648
relative viability (first compound 0.1 µM): 0.585 | relative viability (first compound 1 µM): 0.811 | relative viability (first compound 3.162 µM): 0.933

NCI-H1651
relative viability (first compound 0.1 µM): 0.488 | relative viability (first compound 1 µM): 0.448 | relative viability (first compound 3.162 µM): 0.547

NCI-H1666
relative viability (first compound 0.1 µM): 0.879 | relative viability (first compound 1 µM): 0.714 | relative viability (first compound 3.162 µM): 0.89

NCI-H1703
relative viability (first compound 0.1 µM): 0.125 | relative viability (first compound 1 µM): 0.134 | relative viability (first compound 3.162 µM): 0.134

NCI-H1734
relative viability (first compound 0.1 µM): 0.585 | relative viability (first compound 1 µM): 0.589 | relative viability (first compound 3.162 µM): 0.507

NCI-H1755
relative viability (first compound 0.1 µM): 0.436 | relative viability (first compound 1 µM): 0.447 | relative viability (first compound 3.162 µM): 0.431

NCI-H1792
relative viability (first compound 0.1 µM): 0.803 | relative viability (first compound 1 µM): 0.907 | relative viability (first compound 3.162 µM): 0.857

NCI-H1793
relative viability (first compound 0.1 µM): 0.6 | relative viability (first compound 1 µM): 0.667 | relative viability (first compound 3.162 µM): 0.615

NCI-H1915
relative viability (first compound 0.1 µM): 0.679 | relative viability (first compound 1 µM): 0.821 | relative viability (first compound 3.162 µM): 0.851

NCI-H1944
relative viability (first compound 0.1 µM): 0.492 | relative viability (first compound 1 µM): 0.514 | relative viability (first compound 3.162 µM): 0.6

NCI-H1975
relative viability (first compound 0.1 µM): 0.652 | relative viability (first compound 1 µM): 0.748 | relative viability (first compound 3.162 µM): 0.7

NCI-H1993
relative viability (first compound 0.1 µM): 0.73 | relative viability (first compound 1 µM): 0.611 | relative viability (first compound 3.162 µM): 1.03

NCI-H2085
relative viability (first compound 0.1 µM): 1.02 | relative viability (first compound 1 µM): 1.08 | relative viability (first compound 3.162 µM): 0.77

NCI-H2087
relative viability (first compound 0.1 µM): 1.38 | relative viability (first compound 1 µM): 1.45 | relative viability (first compound 3.162 µM): 1.18

NCI-H2126
relative viability (first compound 0.1 µM): 0.925 | relative viability (first compound 1 µM): 1.03 | relative viability (first compound 3.162 µM): 1.08

NCI-H2170
relative viability (first compound 0.1 µM): 0.899 | relative viability (first compound 1 µM): 1.04 | relative viability (first compound 3.162 µM): 0.724

NCI-H2342
relative viability (first compound 0.1 µM): 0.548 | relative viability (first compound 1 µM): 0.49 | relative viability (first compound 3.162 µM): 0.518

NCI-H2347
relative viability (first compound 0.1 µM): 0.873 | relative viability (first compound 1 µM): 0.924 | relative viability (first compound 3.162 µM): 0.737

NCI-H2405
relative viability (first compound 0.1 µM): 0.792 | relative viability (first compound 1 µM): 0.769 | relative viability (first compound 3.162 µM): 0.609

NCI-H3122
relative viability (first compound 0.1 µM): 1 | relative viability (first compound 1 µM): 1.03 | relative viability (first compound 3.162 µM): 1.02

PC-3 [JPC-3]
relative viability (first compound 0.1 µM): 0.832 | relative viability (first compound 1 µM): 0.807 | relative viability (first compound 3.162 µM): 0.773

PC-14
relative viability (first compound 0.1 µM): 0.353 | relative viability (first compound 1 µM): 0.295 | relative viability (first compound 3.162 µM): 0.408

RERF-LC-KJ
relative viability (first compound 0.1 µM): 1.02 | relative viability (first compound 1 µM): 0.985 | relative viability (first compound 3.162 µM): 1.04

SW 900
relative viability (first compound 0.1 µM): 0.663 | relative viability (first compound 1 µM): 0.758 | relative viability (first compound 3.162 µM): 0.879
